Data from patent US11572590B2, “Methods for evaluating tumor cell spheroids using 3D microfluidic cell culture device” (Dana-Farber Cancer Institute, Inc., priority 2017, dated 2023).
Like-named read-outs stand apart in the source and are kept apart here.

Experiments:
Assay in all cases: SelectScreen Kinase Profiling, single point inhibition and IC50 for off-target kinases
Format in all cases: biochemical
[1] = biological target: T1, off-target kinases (Homo sapiens, UniProt P52333); settings: JAK3, ATP Km app, ZLYTE
T1 sequence (P52333 1-1124): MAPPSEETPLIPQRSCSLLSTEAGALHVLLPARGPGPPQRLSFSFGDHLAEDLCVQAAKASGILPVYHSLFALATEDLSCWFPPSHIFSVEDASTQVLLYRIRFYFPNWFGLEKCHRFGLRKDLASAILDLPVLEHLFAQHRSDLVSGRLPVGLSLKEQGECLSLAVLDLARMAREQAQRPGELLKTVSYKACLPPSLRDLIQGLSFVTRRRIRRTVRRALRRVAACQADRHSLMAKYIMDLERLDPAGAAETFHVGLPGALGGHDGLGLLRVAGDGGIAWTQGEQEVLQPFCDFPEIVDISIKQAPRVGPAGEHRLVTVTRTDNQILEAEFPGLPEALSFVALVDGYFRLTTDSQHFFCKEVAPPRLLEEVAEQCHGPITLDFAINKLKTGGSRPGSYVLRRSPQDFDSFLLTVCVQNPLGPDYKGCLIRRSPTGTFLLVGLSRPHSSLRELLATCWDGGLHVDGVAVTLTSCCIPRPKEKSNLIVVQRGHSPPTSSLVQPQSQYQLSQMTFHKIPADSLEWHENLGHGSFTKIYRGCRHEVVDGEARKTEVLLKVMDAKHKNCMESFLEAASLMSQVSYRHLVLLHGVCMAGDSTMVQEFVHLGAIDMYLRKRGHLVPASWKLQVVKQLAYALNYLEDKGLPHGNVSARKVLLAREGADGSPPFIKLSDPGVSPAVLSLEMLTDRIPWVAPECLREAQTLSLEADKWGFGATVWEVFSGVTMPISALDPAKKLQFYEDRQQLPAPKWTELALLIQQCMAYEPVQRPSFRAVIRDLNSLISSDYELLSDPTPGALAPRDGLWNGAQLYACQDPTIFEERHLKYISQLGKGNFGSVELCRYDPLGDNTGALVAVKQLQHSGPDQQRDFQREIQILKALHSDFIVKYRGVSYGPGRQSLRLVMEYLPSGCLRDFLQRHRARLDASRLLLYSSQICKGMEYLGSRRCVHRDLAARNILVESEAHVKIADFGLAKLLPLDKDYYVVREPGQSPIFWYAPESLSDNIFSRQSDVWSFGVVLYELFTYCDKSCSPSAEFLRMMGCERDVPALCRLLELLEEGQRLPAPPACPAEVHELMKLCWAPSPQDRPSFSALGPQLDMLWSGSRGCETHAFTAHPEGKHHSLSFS

[2] = biological target: off-target kinases (Homo sapiens, UniProt Q02763, R849W); settings: TEK (TIE2) R849W, mutant y, LanthaScreen Binding
[3] = biological target: off-target kinases (Homo sapiens, UniProt Q04759); settings: PRKCQ (PKC theta); Cmpd1 1000 μM; ATP Km app; ZLYTE
[4] = biological target: off-target kinases (Homo sapiens, UniProt Q8N4C8); settings: MINK1, ATP Km app, ZLYTE
[5] = biological target: T2, off-target kinases (Homo sapiens, UniProt Q9UQB9); settings: AURKC (Aurora C), ZLYTE, ATP Km app
T2 sequence (Q9UQB9 1-309): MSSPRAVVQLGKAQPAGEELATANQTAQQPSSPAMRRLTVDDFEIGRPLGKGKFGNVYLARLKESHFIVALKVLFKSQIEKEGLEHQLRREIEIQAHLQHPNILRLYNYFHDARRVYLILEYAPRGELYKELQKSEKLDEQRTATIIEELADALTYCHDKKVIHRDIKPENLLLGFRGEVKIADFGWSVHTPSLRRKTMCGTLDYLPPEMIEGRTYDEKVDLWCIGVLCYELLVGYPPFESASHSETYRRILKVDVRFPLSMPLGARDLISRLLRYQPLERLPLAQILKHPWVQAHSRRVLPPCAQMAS

Chain of off-target kinases (Homo sapiens, UniProt Q04759) (Q04759 whole entry): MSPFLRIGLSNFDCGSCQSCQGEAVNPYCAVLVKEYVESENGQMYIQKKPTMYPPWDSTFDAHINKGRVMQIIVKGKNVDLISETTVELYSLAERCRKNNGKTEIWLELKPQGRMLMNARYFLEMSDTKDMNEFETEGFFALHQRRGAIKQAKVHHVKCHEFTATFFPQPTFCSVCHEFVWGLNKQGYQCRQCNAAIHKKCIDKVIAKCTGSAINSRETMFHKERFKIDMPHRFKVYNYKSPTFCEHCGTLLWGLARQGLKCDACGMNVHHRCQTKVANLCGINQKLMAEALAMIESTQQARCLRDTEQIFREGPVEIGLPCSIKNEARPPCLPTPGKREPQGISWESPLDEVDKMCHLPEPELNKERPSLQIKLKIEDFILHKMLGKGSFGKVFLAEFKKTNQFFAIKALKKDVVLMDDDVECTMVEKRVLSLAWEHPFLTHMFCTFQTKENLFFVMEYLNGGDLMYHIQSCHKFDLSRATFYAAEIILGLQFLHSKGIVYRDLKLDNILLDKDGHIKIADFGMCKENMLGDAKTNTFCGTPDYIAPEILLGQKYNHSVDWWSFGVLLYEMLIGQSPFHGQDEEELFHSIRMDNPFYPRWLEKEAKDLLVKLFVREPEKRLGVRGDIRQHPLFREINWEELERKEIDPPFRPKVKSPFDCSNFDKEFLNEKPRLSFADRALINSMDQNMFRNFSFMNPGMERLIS
Chain of off-target kinases (Homo sapiens, UniProt Q8N4C8) (Q8N4C8 whole entry): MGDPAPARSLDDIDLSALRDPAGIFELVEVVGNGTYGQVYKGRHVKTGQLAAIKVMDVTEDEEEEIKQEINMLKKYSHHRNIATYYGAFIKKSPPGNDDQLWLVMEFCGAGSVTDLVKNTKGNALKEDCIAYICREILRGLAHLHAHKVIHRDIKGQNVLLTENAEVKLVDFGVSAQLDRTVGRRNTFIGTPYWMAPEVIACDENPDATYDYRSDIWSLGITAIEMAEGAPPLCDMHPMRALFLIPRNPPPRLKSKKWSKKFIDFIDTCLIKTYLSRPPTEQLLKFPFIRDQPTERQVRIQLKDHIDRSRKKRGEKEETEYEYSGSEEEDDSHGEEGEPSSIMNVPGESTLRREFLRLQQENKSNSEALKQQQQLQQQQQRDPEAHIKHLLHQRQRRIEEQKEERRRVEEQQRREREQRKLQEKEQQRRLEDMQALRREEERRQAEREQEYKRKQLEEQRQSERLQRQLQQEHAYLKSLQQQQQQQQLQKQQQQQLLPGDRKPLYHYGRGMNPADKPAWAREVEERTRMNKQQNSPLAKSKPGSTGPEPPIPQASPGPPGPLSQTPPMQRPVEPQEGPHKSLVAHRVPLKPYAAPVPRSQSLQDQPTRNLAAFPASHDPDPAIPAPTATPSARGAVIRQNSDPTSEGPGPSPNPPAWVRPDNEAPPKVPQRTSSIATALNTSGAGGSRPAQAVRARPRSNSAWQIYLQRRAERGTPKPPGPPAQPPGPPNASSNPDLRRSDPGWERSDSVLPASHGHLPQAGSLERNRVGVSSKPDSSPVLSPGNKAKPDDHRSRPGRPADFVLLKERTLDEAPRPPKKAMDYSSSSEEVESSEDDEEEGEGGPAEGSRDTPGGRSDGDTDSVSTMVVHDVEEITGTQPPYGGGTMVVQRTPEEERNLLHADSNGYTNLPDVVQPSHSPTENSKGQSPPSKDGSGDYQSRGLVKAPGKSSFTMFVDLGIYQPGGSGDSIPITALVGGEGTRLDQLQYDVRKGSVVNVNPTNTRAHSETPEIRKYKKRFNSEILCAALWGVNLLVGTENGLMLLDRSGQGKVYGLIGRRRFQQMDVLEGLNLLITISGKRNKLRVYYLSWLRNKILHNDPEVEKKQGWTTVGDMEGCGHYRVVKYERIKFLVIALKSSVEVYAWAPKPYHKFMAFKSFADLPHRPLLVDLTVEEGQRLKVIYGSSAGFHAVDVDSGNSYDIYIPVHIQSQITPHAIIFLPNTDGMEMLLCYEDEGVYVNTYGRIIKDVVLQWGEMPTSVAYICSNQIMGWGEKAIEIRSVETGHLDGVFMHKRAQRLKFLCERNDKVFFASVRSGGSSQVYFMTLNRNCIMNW
Chain of off-target kinases (Homo sapiens, UniProt Q02763, R849W) (Q02763 23-1124 R849W): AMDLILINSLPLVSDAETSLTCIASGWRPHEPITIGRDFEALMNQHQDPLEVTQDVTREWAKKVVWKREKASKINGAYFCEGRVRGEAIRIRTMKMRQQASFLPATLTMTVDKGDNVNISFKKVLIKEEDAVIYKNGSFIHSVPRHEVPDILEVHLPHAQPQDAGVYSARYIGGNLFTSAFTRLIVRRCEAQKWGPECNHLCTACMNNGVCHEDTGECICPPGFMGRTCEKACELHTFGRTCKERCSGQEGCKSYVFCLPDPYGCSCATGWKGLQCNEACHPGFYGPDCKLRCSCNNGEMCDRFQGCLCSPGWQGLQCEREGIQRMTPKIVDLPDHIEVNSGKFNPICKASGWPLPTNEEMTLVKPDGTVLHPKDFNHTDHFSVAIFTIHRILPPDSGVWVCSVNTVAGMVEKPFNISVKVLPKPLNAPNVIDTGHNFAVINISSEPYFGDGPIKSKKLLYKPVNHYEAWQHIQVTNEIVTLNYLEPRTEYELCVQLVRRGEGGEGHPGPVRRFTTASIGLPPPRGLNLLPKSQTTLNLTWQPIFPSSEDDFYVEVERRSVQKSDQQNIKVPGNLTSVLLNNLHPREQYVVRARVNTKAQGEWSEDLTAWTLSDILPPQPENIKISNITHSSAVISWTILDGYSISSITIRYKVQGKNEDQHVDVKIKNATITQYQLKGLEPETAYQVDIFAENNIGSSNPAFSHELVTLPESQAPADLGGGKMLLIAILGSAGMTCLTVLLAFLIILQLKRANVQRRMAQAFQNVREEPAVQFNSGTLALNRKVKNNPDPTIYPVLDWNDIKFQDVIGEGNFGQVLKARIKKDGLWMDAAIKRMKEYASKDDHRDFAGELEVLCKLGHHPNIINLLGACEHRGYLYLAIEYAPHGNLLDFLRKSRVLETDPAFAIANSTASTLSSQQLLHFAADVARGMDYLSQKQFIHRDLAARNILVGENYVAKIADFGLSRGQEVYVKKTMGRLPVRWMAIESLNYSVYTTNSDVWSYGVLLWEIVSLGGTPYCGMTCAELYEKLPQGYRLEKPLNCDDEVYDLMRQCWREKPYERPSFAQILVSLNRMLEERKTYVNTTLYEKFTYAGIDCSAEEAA

Structure (SMILES): N#Cc1cc(-c2ncnc(Nc3ccc(N4CCN(C5COC5)CC4)cc3)n2)ccc1OC1CCOCC1 [Compound 1, 5-(4-((4-(4-(oxetan-3-yl)piperazin-1-yl)phenyl)amino)-1,3,5-triazin-2-yl)-2-((tetrahydro-2H-pyran-4-yl)oxy)benzonitrile]
- inhibition ([1]; read-out: % Inhibition 1): 73%
- inhibition ([1]; read-out: % Inhibition 2): 73%
- inhibition ([1]; read-out: % Inhibition Avg): 73%
- inhibition ([2]; read-out: % Inhibition 1): 40%
- inhibition ([2]; read-out: % Inhibition 2): 41%
- inhibition ([2]; read-out: % Inhibition Avg): 41%
- % Inhibition 1 [3]: −6%
- % Inhibition 2 [3]: −17%
- % Inhibition Avg [3]: −12%
- inhibition ([4]; read-out: % Inhibition 1): 66%
- inhibition ([4]; read-out: % Inhibition 2): 70%
- inhibition ([4]; read-out: % Inhibition Avg): 68%
- inhibition ([5]; read-out: % Inhibition 1): 23%
- inhibition ([5]; read-out: % Inhibition 2): 23%
- inhibition ([5]; read-out: % Inhibition Avg): 23%
